Measured values: patent US20200291082A1, “PREVENTION AND TREATMENT OF GRAFT-VERSUS-HOST-DISEASE WITH DEFENSINS” (priority 2017, published 2020)
“Also recorded” adds a separate entry of the source. No end group written: not given here.

Columns and labels:
[1] = system: CD4+CD25+ Tcell transfer induced colitis; assay: therapeutic murine 14 weeks CD4+CD25+ Tcell transfer induced colitis model (Example 6); assay type: in vivo, SCID mice; conditions: hBD2 1 mg/kg s.c. OD, Dexamethasone 0.3 mg/kg i.p. OD, Enbrel 100 μg/mouse s.c. twice weekly
Description: Efficacy of s.c. administration of hBD2 versus s.c. anti TNF-α (Enbrel) and intraperitoneal dexamethasone in a therapeutic, murine, 14 weeks, CD4+CD25+ Tcell transfer induced colitis model.
70 female BALB/c mice housed in groups of five per cage were allocated to 7 different treatment groups. Colitis was induced in SCID mice by transplantation of CD4+CD25+ Tcells from BALB/c mice. Lymphocytes isolated from spleen and lymph nodes from BALB/c mice were subjected to negative selection of CD4+ Tcells. Afterwards, CD4+CD25+ cells were positively isolated by binding to the beads from the CD4+ Tcell suspensions and the CD4+CD25− were collected from the supernatant. The animals were treated with hBD2, 0.1 mg/kg s.c. OD; 1 mg/kg s.c. OD or 3 mg/kg s.c. OD or with mouse anti TNFα 100 μg/mouse s.c. twice weekly or with dexamethasone 0.3 mg/kg intraperitoneally OD or PBS s.c. as vehicle from day 7 and 86 consecutive days.
Clinical assessment was based on body weight loss, stool consistency and presence of blood per rectum. The animals were sacrificed on day 95 and colon removed for assessment of weight and myeloperoxidase activity.

[2] = system: Dextran Sodium Sulphate induced colitis; assay: prophylactic murine 10-day oral Dextran Sodium Sulphate induced colitis model, oral hBD2 versus oral prednisolone (Example 2); assay type: in vivo, C57BL/6 mice; conditions: for histological score, compared with prednisolone: all three oral hBD2 dose groups versus prednisolone 1 mg/kg; for body weight loss / body weight change: all three oral hBD2 dose levels (0.05, 0.5, 5 mg/kg twice per day), 10 days; for histological score: versus vehicle, Prednisolone 1 mg/kg twice per day p.o., oral hBD2 all doses
Method: Anti-inflammatory effect of oral administration of hBD2 versus oral prednisolone in a prophylactic murine, 10-day, oral Dextran Sodium Sulphate induced colitis model.
50 male C57BL/6 mice housed in groups of five per cage were allocated to 5 different treatment groups. All animals had their drinking water supplemented with DSS 2% for 7 days to induce colitis resulting in significant inflammation and injury of the colonic tissue. The animals were treated with oral hBD2 dosed at three different dose levels twice per day or prednisolone 1 mg/kg twice per day or PBS as vehicle for 10 days.
A disease activity index (DAI) scoring system was applied for clinical assessment (FIG. 7). The animals were sacrificed on day 10 and colon removed for histological assessment employing a histological scoring system (FIG. 8).

[3] = system: acute graft versus host disease following stem cell transplantation; assay: prophylactic oral hBD-2 in murine model of acute graft versus host disease following stem cell transplantation (Example 13); assay type: in vivo, BALB/c mice; conditions: for IL-1β from myeloid cells: CD11c+ dendritic cells and CD11b+ Ly6FG− cells; for infiltration with CD45+ leucocytes (FACS analysis): lamina propria of colon (FIG. 50: colon and small intestine); for intestinal T cell and myeloid cell infiltration: lamina propria of the colon (FIG. 51: colon and small intestine)
Method: To determine and assess the efficacy of prophylactic treatment with oral hBD-2 in a murine model of acute graft versus host disease following stem cell transplantation.
Treatment regime: 12 female BALB/c mice were irradiated with 4.5 Gy (2×498 sec) at intervals of at least 4 hours on day 0. Bone marrow was harvested: hind limbs harvested from 2 female WT C57BL/6 mice aseptically. Skeletal muscle was removed and epiphysis cut away. Lumen of bone flushed with PBS and cells pelleted and taken up. Harvest of T-cells: spleens from 2 female WT C57BL/6 mice were meshed through a 100 μM cell strainer into a PBS filled dish. Cells were taken up in PBS and transferred into a 50 mL falcon tube and spun down. Cells were taken up in 1 mL PBS and 20 μL of CD4 microbead+20 μL CD8 microbeads per spleen added for incubation for 20 min at 4 degrees C. Cells were washed with PBS and applied to MACS separation in order to positively select CD4+ and CD8+ cells. Positively selected T-cells were counted and taken up. Transplantation: directly after the second irradiation, all WT BALB/c recipient mice were injected with 5×1.000.000 BM cells (50 μL) i.v. into the retroorbital venous plexus under isoflurane anesthesia. 15 BALB/c mice were treated with 1.2 mg of hBD2/kg BW/day in 100 μL PBS per day vial oral gavage from day 0-10.
15 BALB/c mice received vehicle 100 μL PBS per day via oral gavage from day 0-10.
The mice were weighed daily for the initial 7 days and survival was monitored for 100 days.

[4] = oral hBD2 1.2 mg/kg/day day 0-10, 15 mice
[5] = oral hBD-2 for 10 days versus PBS

**Q.** How did the myeloperoxidase activity ([1]; colon, day 95) turn out when “human beta defensin 2 (GIGDPVTCLKSGAICHPVFCPRRYKQIGTCGLPGTKCCKKP; not fully specified (bridges); ends and bridges not checked; listed as Homo sapiens) [hBD2]” was run?
**A.** statistically significant and similar effect; also recorded: on par with 100 μg/mouse anti TNF-α s.c. twice weekly (Enbrel) and 0.3 mg/kg dexamethasone intraperitoneally OD

**Q.** What about the “clinical score (body weight loss, stool consistency, presence of blood per rectum)” value [1] of the same substance?
**A.** statistically significant and similar effect on clinical score; also recorded: on par with 100 μg/mouse anti TNF-α s.c. twice weekly (Enbrel) and 0.3 mg/kg dexamethasone intraperitoneally OD

**Q.** What about the colon weight ([1]; day 95) of the same substance?
**A.** statistically significant and similar effect on colon weight; also recorded: on par with 100 μg/mouse anti TNF-α s.c. twice weekly (Enbrel) and 0.3 mg/kg dexamethasone intraperitoneally OD

**Q.** And the “disease activity index score, compared with prednisolone” value ([2]; FIG. 11, orally administered hBD2 versus prednisolone 1 mg/kg)?
**A.** statistically significant superiority

**Q.** And the “histological score, compared with prednisolone” value [2]?
**A.** significantly better than Prednisolone

**Q.** What about the “histological score, compared with prednisolone” value ([2]; listed as HBD2) of the same substance?
**A.** on par with prednisolone 1 mg/kg

**Q.** And the “body weight loss / body weight change” value [2]?
**A.** dramatically reduced loos of body weight

**Q.** And the “body weight loss / body weight change” value ([2]; listed as HBD2hBD2)?
**A.** weight preserving effect

**Q.** And the body weight loss ([2]; high dose group hBD2 5 mg/kg BID oral)?
**A.** most pronounced

**Q.** And the “disease activity index (DAI)” value ([2]; high dose hBD2 5 mg/kg BID oral, compared with lower doses and Prednisolone)?
**A.** significantly better effect on DAI

**Q.** What about the “disease activity index (DAI)” value ([2]; two lower dose levels of oral hBD2 (0.05, 0.5 mg/kg twice per day)) of the same substance?
**A.** statistically significant effect on DAI on par with Prednisolone

**Q.** And the histological score [2]?
**A.** statistically significant effect on histological score

**Q.** What about the histological score ([2]; listed as HBD2) of the same substance?
**A.** statistical significant effect

**Q.** And the “Th1 cytokine production (TNF-α and IFN-γ in CD4 and CD8 T cells)” value ([3]; FACS analysis of the spleen)?
**A.** reduced Th 1 cytokine production; also recorded: reduced Th1 cytokine production

**Q.** And the neutrophils ([3]; FACS analysis of the spleen)?
**A.** Reduced proportion of neutrophils; also recorded: reduced number of neutrophils

**Q.** And the “IL-1β from myeloid cells” value ([3]; FACS analysis of the spleen)?
**A.** decrease the production of IL-1β

**Q.** What about the “IL-1β from myeloid cells” value ([3]; FACS analysis of the spleen, listed as hBD-2) of the same substance?
**A.** reduction of IL-1β from myeloid cells; also recorded: Reduced IL-1β production

**Q.** What about the weight loss ([3]; first 7 days following bone marrow transplantation) of the same substance?
**A.** lost statistically significantly less weight

**Q.** What about the “survival (Kaplan-Meyer plot)” value ([3]; hBD2 1.2 mg/kg/day day 0 to day 10 versus vehicle, n=15) of the same substance?
**A.** dramatically increased survival

**Q.** What about the “microarray analysis of colon samples” value ([3]; hBD-2 treated group versus PBS) of the same substance?
**A.** decreased inflammation, leucocyte and myeloid cell migration and tissue remodelling

**Q.** And the “infiltration with CD45+ leucocytes (FACS analysis)” value [3]?
**A.** reduced the infiltration

**Q.** What about the “infiltration with CD45+ leucocytes (FACS analysis)” value ([3]; listed as hBD-2) of the same substance?
**A.** Reduced CD45+ leucocyte cell migration

**Q.** And the “intestinal T cell and myeloid cell infiltration” value [3]?
**A.** reduced

**Q.** And the “intestinal T cell and myeloid cell infiltration” value ([3]; listed as hBD-2)?
**A.** Reduction of intestinal T cell and myeloid cell infiltration

**Q.** What about the “mice still alive by day 100” value [3, 4] of the same substance?
**A.** 8 mice

**Q.** What about the “share of treated mice that had died by day 35” value [3, 4] of the same substance?
**A.** less than 30%

**Q.** What about the “treated mice that had died by day 35” value ([3]; oral hBD2 1.2 mg/kg/day day 0-10, 15 mice, all 15 vehicle mice had died by day 35) of the same substance?
**A.** 4

**Q.** And the “histology score of the colon” value [3, 5]?
**A.** highly statistically lower; also recorded: statistically significant reduction of histology score

**Q.** And the “histology score of the liver” value [3, 5]?
**A.** highly statistically lower; also recorded: statistically significant reduction of histology score

**Q.** And the “histology score of the small intestine” value [3, 5]?
**A.** highly statistically lower; also recorded: statistically significant reduction of histology score

**Q.** And the TNF-α concentration ([3]; serum (FIG. 52a))?
**A.** reduction

**Q.** What about the IL-6 concentration ([3]; serum (FIG. 52b)) of the same substance?
**A.** reduction

**Q.** What about the IL-10 concentration ([3]; serum (FIG. 52c)) of the same substance?
**A.** increased concentration of IL-10
